Measured values from ChEMBL document CHEMBL3817779, “Identification of novel 2-aminothiazole conjugated nitrofuran as antitubercular and antibacterial agents” (Bioorg Med Chem Lett, 2016).
≈ marks a conversion by molar mass, not a printed value.

Tests used:
[1] = test system: Mycobacterium tuberculosis; assay type: functional; conditions: H37Ra ATCC 25177
[2] = test system: Mycobacterium tuberculosis; assay type: functional; conditions: H37Ra ATCC 25177; remark: listed apart in the source
[3] = test system: Vero; assay: Cytotoxicity against African green monkey Vero cells assessed as reduction in cell viability after 72 hrs by MTT assay; assay type: cell-based; conditions: Chlorocebus sabaeus
[4] = test system: Mycobacterium tuberculosis; assay: Antitubercular activity against Mycobacterium tuberculosis H37Rv assessed as inhibition of visible growth after 7 days by microbroth dilution method; assay type: functional; conditions: 168 h
[5] = Aqueous solubility in water at room temperature sonicated for 30 mins followed by overnight incubation by HPLC analysis; assay type: physicochemical
[6] = test system: Mycobacterium tuberculosis; assay: microbe, parasite or virus in culture; conditions: H37Ra ATCC 25177
Description: Antitubercular activity against Mycobacterium tuberculosis H37Ra ATCC 25177

[7] = test system: Staphylococcus aureus; assay: Antibacterial activity against Staphylococcus aureus ATCC 6538; assay type: functional
[8] = test system: Mycobacterium tuberculosis; assay type: functional; conditions: H37Ra ATCC 25177; remark: listed apart in the source
[9] = test system: Staphylococcus aureus; assay: Antibacterial activity against Staphylococcus aureus ATCC 6538 at 20 uM relative to control; assay type: functional

Compound	inhibition at 1 µM [1] [%]	inhibition at 10 µM [2] [%]	IC50 [3] [µM]	MIC [4] [µg/mL]	solubility at 0.5 h [5] [µg/mL]	MIC90 [6] [µg/mL]	MIC [7] [µg/mL]	inhibition at 20 µM [8] [%]	inhibition at 20 µM [9] [%]
O=C(Nc1nc(-c2c(F)cc(F)cc2F)cs1)c1ccc([N+](=O)[O-])o1	-4.1	-10.1	19.9	–	–	–	–	–	–
COc1ccc(-c2csc(NC(=O)c3ccc([N+](=O)[O-])o3)n2)cc1	-8.3	99.3	63	–	–	–	–	–	–
O=[N+]([O-])c1ccc(C2=NOC(c3ccc(N4CCC(Oc5ccc(OC(F)(F)F)cc5)CC4)cc3)C2)o1 (stereo unspecified)	–	–	–	0.024 (≈ 0.0464 µM)	–	–	–	–	–
O=C(Nc1nc(-c2cccc(NS(=O)(=O)Cc3ccccc3)c2)cs1)c1ccc([N+](=O)[O-])o1	93.9	–	59.3	–	0.48 (≈ 0.991 µM)	0.61 (≈ 1.26 µM)	1.52 (≈ 3.14 µM)	–	–
COc1ccc(C(=O)Nc2cccc(-c3csc(NC(=O)c4ccc([N+](=O)[O-])o4)n3)c2)cc1	-2.7	–	–	–	–	–	–	–	–
O=C(Nc1nc(-c2cccc(Cl)c2)cs1)c1ccc([N+](=O)[O-])o1	40.5	99.2	43.7	–	–	–	–	–	–
O=C(Nc1nc(-c2cccc(NC(=O)C3CCCC3)c2)cs1)c1ccc([N+](=O)[O-])o1	0.2	–	–	–	–	–	–	–	–
Cc1cc(C)c(-c2csc(NC(=O)c3ccc([N+](=O)[O-])o3)n2)c(C)c1	0.9	-4.3	30.4	–	–	–	–	–	–
CS(=O)(=O)Nc1cccc(-c2csc(NC(=O)c3ccc([N+](=O)[O-])o3)n2)c1	-4.1	82.1	< 2.81	–	–	–	–	–	–
O=C(Nc1nc(-c2cccc(NC(=O)C3CC3)c2)cs1)c1ccc([N+](=O)[O-])o1	99.3	99.6	35.7	–	0.47 (≈ 1.18 µM)	0.5 (≈ 1.26 µM)	2.49 (≈ 6.25 µM)	–	–
CC(C)(C)OC(=O)Nc1cccc(-c2csc(NC(=O)c3ccc([N+](=O)[O-])o3)n2)c1	40	–	–	–	–	–	–	–	–
O=C(Nc1cccc(-c2csc(NC(=O)c3ccc([N+](=O)[O-])o3)n2)c1)c1ccccc1	98.9	99.5	50.2	–	1.27 (≈ 2.92 µM)	0.27 (≈ 0.621 µM)	1.36 (≈ 3.13 µM)	–	–
COc1cccc(-c2csc(NC(=O)c3ccc([N+](=O)[O-])o3)n2)c1	68.8	100	58.7	–	–	–	–	99.5	99.5
CCOc1cccc(-c2csc(NC(=O)c3ccc([N+](=O)[O-])o3)n2)c1	95.7	99.4	> 90	–	0.34 (≈ 0.946 µM)	0.9 (≈ 2.5 µM)	4.49 (≈ 12.5 µM)	–	–
COc1cccc(-c2csc(NC(=O)c3ccc(N)o3)n2)c1	5.2	–	–	–	–	–	–	–	–
Nc1cccc(-c2csc(NC(=O)c3ccc([N+](=O)[O-])o3)n2)c1	-1.1	–	–	–	–	–	–	–	–

Compound	inhibition at 1 µM [1] [%]	inhibition at 10 µM [2] [%]	IC50 [3] [µM]	MIC [4] [µg/mL]	solubility at 0.5 h [5] [µg/mL]	MIC90 [6] [µg/mL]	MIC [7] [µg/mL]	inhibition at 20 µM [8] [%]	inhibition at 20 µM [9] [%]
COc1ccccc1-c1csc(NC(=O)c2ccc([N+](=O)[O-])o2)n1	-3	99.5	42	–	–	–	–	–	–
O=C(Nc1nc(-c2cccc(Br)c2)cs1)c1ccc([N+](=O)[O-])o1	70.4	98.9	71	–	–	–	–	–	–
COc1cccc(-c2csc(NC(=O)c3ccc([N+](=O)[O-])cc3)n2)c1	-0.4	-1.5	> 90	–	–	–	–	–	–
CC(C)Oc1cccc(-c2csc(NC(=O)c3ccc([N+](=O)[O-])o3)n2)c1	97.8	99.2	69.5	–	0.27 (≈ 0.723 µM)	0.47 (≈ 1.26 µM)	4.67 (≈ 12.5 µM)	–	–
O=C(Nc1nc(-c2cccc(NC(=O)C3CCC3)c2)cs1)c1ccc([N+](=O)[O-])o1	1.9	–	–	–	–	–	–	–	–
O=C(Nc1nc(-c2ccccc2)cs1)c1ccc([N+](=O)[O-])o1	37.2	99.5	41.7	–	–	–	–	–	–
CC(=O)Nc1cccc(-c2csc(NC(=O)c3ccc([N+](=O)[O-])o3)n2)c1	40.6	99.4	57.6	–	–	–	–	–	–
O=C(Nc1nc(-c2cccc(NC(=O)C3CCCCC3)c2)cs1)c1ccc([N+](=O)[O-])o1	98.9	99.1	21.9	–	3.46 (≈ 7.86 µM)	0.28 (≈ 0.636 µM)	2.75 (≈ 6.24 µM)	–	–
O=C(Nc1cccc(-c2csc(NC(=O)c3ccc([N+](=O)[O-])o3)n2)c1)c1cccc(C(F)(F)F)c1	13.7	–	–	–	–	–	–	–	–
O=C(Nc1nc(-c2cccc(C(F)(F)F)c2)cs1)c1ccc([N+](=O)[O-])o1	67	98.6	23.9	–	–	–	–	–	–
O=C(Nc1cccc(-c2csc(NC(=O)c3ccc([N+](=O)[O-])o3)n2)c1)c1ccc(F)cc1	39.8	–	–	–	–	–	–	–	–
O=C(Nc1nc(-c2cccc(OC3CCCC3)c2)cs1)c1ccc([N+](=O)[O-])o1	97.9	99.3	81.1	–	0.027 (≈ 0.0676 µM)	1 (≈ 2.5 µM)	4.99 (≈ 12.5 µM)	–	–
O=C(Nc1nc(-c2cccc(F)c2)cs1)c1ccc([N+](=O)[O-])o1	95.7	99.6	51.6	–	14.8 (≈ 44.5 µM)	0.83 (≈ 2.49 µM)	4.17 (≈ 12.5 µM)	–	–
COc1cccc(-c2csc(NC(=O)c3ccco3)n2)c1	1.9	-0.9	> 90	–	–	–	–	–	–
O=C(O)c1cn(C2CC2)c2cc(N3CCNCC3)c(F)cc2c1=O [CIPROFLOXACIN]	99.6	99.7	–	–	–	1.04 (≈ 3.14 µM)	0.26 (≈ 0.785 µM)	–	–
